Laboratory results from patent US9233098B2, “Nitrogen-containing fused ring compounds as CRTH2 antagonists” (KBP Biosciences Co., Ltd., priority 2011, dated 2016).
Marks after values point to notes of the source that are not given here.

These molecules were tested against T1, CRTH2 receptor (Homo sapiens, UniProt Q9Y5Y4) (assay: Calcium flux FLIPR assay, antagonism against CRTH2 receptor (PGD2 at EC80)). Settings: CHO-K1/CRTH2/Gα15 cells; blocking activation induced by PGD2 at EC80.
T1 construct: host or cells: CHO-K1/CRTH2/Gα15
T1 sequence (Q9Y5Y4 1-395): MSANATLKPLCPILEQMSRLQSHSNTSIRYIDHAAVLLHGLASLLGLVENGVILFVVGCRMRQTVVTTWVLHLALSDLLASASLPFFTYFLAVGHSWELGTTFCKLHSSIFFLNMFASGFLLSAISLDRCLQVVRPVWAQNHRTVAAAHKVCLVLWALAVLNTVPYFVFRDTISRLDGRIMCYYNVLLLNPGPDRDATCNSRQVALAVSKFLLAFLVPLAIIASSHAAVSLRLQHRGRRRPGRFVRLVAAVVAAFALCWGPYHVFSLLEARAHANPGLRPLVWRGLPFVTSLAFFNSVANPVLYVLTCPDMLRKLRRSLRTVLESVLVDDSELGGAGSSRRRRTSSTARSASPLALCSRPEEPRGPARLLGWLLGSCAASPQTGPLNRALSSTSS
Type: cell-based
Experimental: Test procedure The test was performed by Nanjing GenScript Biotech Ltd. by calcium flux assay. Test procedure and results are as follows:
Material for test was weighed accurately, and DMSO was added to dissolve the material for test, mixed and homogenized sufficiently, and formulated to 50 mM. And then, it was diluted to 50 μM by using 20 mM HEPES (hydroxyethylpiperazine ethanesulfonic acid) buffer solution at pH 7.4, and the maximum concentration of the compound was 10000 nM. It was further diluted by 3 folds as a series, and consecutively diluted to 10 concentrations, to reserve.
FLIPR Assay (Real Time Fluorescence Imaging Analysis)
In a 384 black microwell plate, 20 μl of cell solution containing 20000 CHO-K1/CRTH2/Gα15 was added, and was incubated at 37° C., 5% CO2 for 18 h. Then, 20 μl of stain in the FLIPR® Calcium 4 assay kit (kit) was added, and 10 μl of compound solution was added. Then, it was incubated at 37° C. for 60 min, and was incubated at room temperature for 15 min. Within 20 seconds, PGD2 HEPES buffer solution of an agonist PGD2 (prostaglandin D2) at the concentration of EC80 was added, and the values of fluorescence of 21-120 seconds were detected.
Data Processing ΔRFU(Relative fluorescence intensity)=maximum fluorescence value of 21-120 seconds−average value of fluorescence value of 1-20 seconds. Inhibition ratio={1−(ΔRFUcompound−ΔRFUbackground)/(ΔRFUagonists control−ΔRFUbackground)}×100 IC50 values of the compounds (i.e. the concentration of the compound for test needed for blocking 50% of the activation of CRTH2 receptor induced by PGD2 at the concentration of EC80) were calculated based on the inhibition ratios. Test Results and Conclusions

**Q.** For Cc1c(CC(=O)O)c2ccccc2n1Cc1ccc(NC(=O)c2ccc3ccccc3c2)cc1 [Compound 1, 2-[1-[4-(2-naphthamido)benzyl]-2-methyl-1H-indol-3-yl]acetic acid], which IC50 is on record?
**A.** The IC50 was 2.6 nM.

**Q.** For Cc1c(Cc2ccc(NC(=O)c3ccc4ccccc4c3)cc2)c2ccccc2n1CC(=O)O [Compound 2, 2-[3-[4-(2-naphthamido)benzyl]-2-methyl-1H-indol-1-yl]acetic acid], which IC50 is on record?
**A.** Its IC50 is 2.3 nM.

**Q.** How did the IC50 turn out when Cc1c(Cc2ccc(NC(=O)c3ccc(C(F)(F)F)cc3)cc2)c2ccccc2n1CC(=O)O [Compound 3, 2-[2-methyl-3-[4-[4-(trifluoromethyl)benzamido]benzyl]-1H-indol-1-yl]acetic acid] was run?
**A.** The IC50 was 6.2 nM.

**Q.** Which IC50 does the source give for Cc1c(Cc2ccc(NC(=O)c3ccc(Cl)c(Cl)c3)cc2)c2ccccc2n1CC(=O)O [Compound 4, 2-[3-[4-(3,4-dichlorobenzamido)benzyl]-2-methyl-1H-indol-1-yl]acetic acid] here?
**A.** The IC50 was 2.7 nM.

**Q.** Which IC50 does the source give for O=C(O)Cn1nc(Cc2ccc(NC(=O)c3ccc4ccccc4c3)cc2)c2ccccc21 [Compound 5, 2-[3-(4-(2-naphthamido)benzyl)-1H-indazol-1-yl]acetic acid] here?
**A.** The IC50 was 2.3 nM.

**Q.** For Cc1c(Cc2ccc(NC(=O)c3ccc(Cl)cc3)cc2)c2ccccc2n1CC(=O)O [Compound 6, 2-[3-[4-(4-chlorobenzamido)benzyl]-2-methyl-1H-indol-1-yl]acetic acid], which IC50 is on record?
**A.** Its IC50 is 0.5 nM.

**Q.** With CCc1c(Cc2ccc(NC(=O)c3ccc4ccccc4c3)cc2)c2ccccc2n1CC(=O)O [Compound 7, 2-[3-[4-(2-naphthamido)benzyl]-2-ethyl-1H-indol-1-yl]acetic acid] as the molecule, how does the IC50 read?
**A.** The IC50 was 7 nM.

**Q.** For O=C(O)Cn1nc(Cc2ccc(NC(=O)c3ccc(Cl)cc3)cc2)c2ccccc21 [Compound 8, 2-[3-[4-(4-chlorobenzamido)benzyl]-1H-indazol-1-yl]acetic acid], which IC50 is on record?
**A.** Its IC50 is 9.7 nM.

**Q.** With O=C(O)Cc1nn(Cc2ccc(NC(=O)c3ccc4ccccc4c3)cc2)c2ccccc12 [Compound 9, 2-[1-[4-(2-naphthamido)benzyl]-1H-indazol-3-yl]acetic acid] as the molecule, how does the IC50 read?
**A.** The IC50 was 3.6 nM.

**Q.** With O=C(O)Cc1nn(Cc2ccc(NC(=O)c3ccc(Cl)cc3)cc2)c2ccccc12 [Compound 10, 2-[1-[4-(4-chlorobenzamido)benzyl]-1H-indazol-3-yl]acetic acid] as the molecule, how does the IC50 read?
**A.** Its IC50 is 7.3 nM.

**Q.** With O=C(O)Cc1nn(Cc2ccc(NC(=O)c3ccc4ccccc4c3)cc2)c2ccc(F)cc12 [Compound 11, 2-[1-[4-(2-naphthamido)benzyl]-5-fluoro-1H-indazol-3-yl]acetic acid] as the molecule, how does the IC50 read?
**A.** The IC50 was 1.19 nM.

**Q.** O=C(O)Cc1nn(Cc2ccc(NC(=O)c3ccc4ccccc4c3)cc2)c2cc(F)ccc12 [Compound 12, 2-[1-[4-(2-naphthamido)benzyl]-6-fluoro-1H-indazol-3-yl]acetic acid] was tested. Which IC50 did it give?
**A.** Its IC50 is 14.9 nM.

**Q.** O=C(O)Cc1nn(Cc2ccc(NC(=O)c3ccc4cc(F)ccc4c3)cc2)c2ccccc12 [Compound 13, 2-[1-[4-(6-fluoro-2-naphthamido)benzyl]-1H-indazol-3-yl]acetic acid] was tested. Which IC50 did it give?
**A.** The IC50 was 4.42 nM.

**Q.** O=C(O)Cc1nn(Cc2ccc(NC(=O)c3ccc4ccccc4c3)cc2)c2ncccc12 [Compound 23, 2-[1-[4-(2-naphthamido)benzyl]-1H-pyrazolo[3,4-b]pyridin-3-yl]acetic acid] was tested. Which IC50 did it give?
**A.** The IC50 was 5.7 nM.

**Q.** How did the IC50 turn out when O=C(O)CCn1c2c(c3ccccc31)C[C@H](NS(=O)(=O)c1ccc(F)cc1)CC2 [Ramatroban, reference compound] was run?
**A.** The IC50 was 10300 nM.

What follows are molecules tested on OVA induced BALB/c mice asthma model (assay: OVA induced mice asthma model, cell count of pulmonary alveoli irrigating solution (oral administration)). Settings: 30 mg/kg oral bid, Mean ± SEM.
Type: in vivo
Experimental: Test procedure and results are as follows:
After acclimation, female BALB/c mice were divided into a blank control group, a model group and an administration group based on body weight randomly. Animal groups, dosage of administration and volume of administration were as detailed in Table 2. The model group and the administration group were intraperitoneally injected with OVA (ovalbumin) solution (containing […] and 2 mg potassium aluminium sulfate) 0.1 mL/animal to allergize on days 1, 14, the blank control group was injected with PBS (phosphate buffer solution). On days 28, 29, 30, 1% OVA was atomized and inhaled continuously to activate for 30 min, for the blank control group replaced with PBS. On days 27, 28, 29, 30, 31, the animals were administered orally with the pharmaceutical and the solvent. The blank control group was administered with the solvent 2 times every day, 1 h before inhalation of PBS and 7 h after the inhalation; the model group was administered with the solvent 2 times every day, 1 h before the inhalation of OVA for activation and 7 h after activation; the administration group was administered with the pharmaceutical 2 times every day, 1 h before the inhalation of OVA for activation and 7 h after activation. On day 32, the animals were executed, immediately irrigated the lung with 0.5 mL PBS (containing 1% FBS) via bronchus, and the irrigation was repeated 2 times. The irrigating solutions were combined, centrifugated, and the cells were resuspended with 1.5 mL PBS (containing 1% FBS). Cell count of bronchus pulmonary alveoli irrigating solution.

**Q.** For O=C(O)Cc1nn(Cc2ccc(NC(=O)c3ccc4ccccc4c3)cc2)c2ccccc12 [Compound 9, 2-[1-[4-(2-naphthamido)benzyl]-1H-indazol-3-yl]acetic acid], which “Acidophilic Cell” value is on record?
**A.** The value was 35.26 ± 4.53** *10^4/mL.

**Q.** What about the Lymphocytes of the same molecule?
**A.** Its Lymphocytes is 1.33 ± 0.23 *10^4/mL.

**Q.** And the Macrophages?
**A.** Its Macrophages is 55.38 ± 5.1** *10^4/mL.

**Q.** What about the “Neutrophilic Granulocyte” value of the same molecule?
**A.** Its value is 6.66 ± 1.87* *10^4/mL.

**Q.** What about the “Total White Cell Count” value of the same molecule?
**A.** Its value is 98.63 ± 4.53** *10^4/mL.
